Patent US7494987B2, “Agent for treating respiratory diseases containing 4-hydroxypiperidine derivative as active ingredient” (priority 2002, dated 2009)

System: not given
Assay: not given
Conditions: not given

First: CN(CC1(O)CCN(CCc2ccc(C#N)cc2)CC1)c1ccc(C(=O)O)cc1Cl.Cl
Second: CN(CC1(O)CCN(CCc2ccc(C#N)cc2)CC1)c1ccc(C(=O)O)cc1Cl [Example 6, 3-chloro-4-({1-[2-(4-cyanophenyl)ethyl]-4-hydroxypiperidin-4-ylmethyl}methylamino)benzoic acid]
The melting point of the first is higher: 254.2 to 258.9 °C for the first, 110.7 to 112.4 °C for the second.

First: COc1cc(N(C)CC2(O)CCN(CCc3ccc(C#N)cc3)CC2)c(Cl)cc1C(=O)O.Cl
Second: COc1cc(N(C)CC2(O)CCN(CCc3ccc(C#N)cc3)CC2)c(Cl)cc1C(=O)O [Example 7, 5-chloro-4-({1-[2-(4-cyanophenyl)ethyl]-4-hydroxypiperidin-4-ylmethyl}methylamino)-2-methoxybenzoic acid]
The melting point of the first is lower: 116.3 to 120.8 °C for the first, 226.8 to 228.3 °C for the second.

Compared with `CN(CC1(O)CCCN(CCc2ccc(C#N)cc2)C1)c1ccc(C(=O)O)cc1.Cl` (stereo not drawn), `CN(CC1(O)CCCN(CCc2ccc(C#N)cc2)C1)c1ccc(C(=O)O)cc1` (stereo not drawn) [Example 15, 4-({1-[2-(4-cyanophenyl)ethyl]-3-hydroxypiperidin-3-ylmethyl}methylamino)benzoic acid] is lower in melting point: 220.1 to 233.3 °C for the first, 166.9 to 181.3 °C for the second.

First: CN(CCC1(O)CCN(CCc2ccc(C#N)cc2)CC1)c1ccc(C(=O)O)cc1.Cl
Second: CN(CCC1(O)CCN(CCc2ccc(C#N)cc2)CC1)c1ccc(C(=O)O)cc1 [Example 16, 4-[(2-{1-[2-(4-cyanophenyl)ethyl]-4-hydroxypiperidin-4-yl}ethyl)methylamino]benzoic acid]
The melting point of the first is higher: 231.3 to 236.4 °C for the first, 146.8 to 148.4 °C for the second.

First: Cc1cc(C(=O)O)ccc1N(C)CC1(O)CCN(CCc2ccc(C#N)cc2)CC1.Cl
Second: Cc1cc(C(=O)O)ccc1N(C)CC1(O)CCN(CCc2ccc(C#N)cc2)CC1 [Example 3, 4-({1-[2-(4-cyanophenyl)ethyl]-4-hydroxypiperidin-4-ylmethyl}methylamino)-3-methylbenzoic acid]
The melting point of the first is higher: 127.1 to 132.7 °C for the first, 103.6 to 108.7 °C for the second.

Compared with `CN(CC1(O)CCN(CCc2ccc(C#N)cc2)CC1)c1ccc(C(=O)O)c(Cl)c1.Cl`, `CN(CC1(O)CCN(CCc2ccc(C#N)cc2)CC1)c1ccc(C(=O)O)c(Cl)c1` [Example 5, 2-chloro-4-({1-[2-(4-cyanophenyl)ethyl]-4-hydroxypiperidin-4-ylmethyl}methylamino)benzoic acid] is higher in melting point: 145.2 to 148 °C for the first, 186.2 to 189.6 °C for the second.

First: CN(CC1(O)CCN(CCc2ccc(C#N)cc2)CC1)c1ccc(C(=O)NO)cc1.Cl
Second: COC(=O)c1ccc(N(C)CC2(O)CCN(CCc3ccc(C#N)cc3)CC2)cc1 [Example 12, methyl 4-({1-[2-(4-cyanophenyl)ethyl]-4-hydroxypiperidin-4-ylmethyl}methylamino)benzoate]
The melting point of the first is higher: 191.3 to 193.9 °C for the first, 140.5 to 142.2 °C for the second.

First: CN(CC1(O)CCN(Cc2ccc(C#N)cc2)CC1)c1ccc(C(=O)O)cc1.Cl
Second: CN(CC1(O)CCN(CCCc2ccc(C#N)cc2)CC1)c1ccc(C(=O)O)cc1.Cl
The melting point of the first is higher: 153.1 to 157.7 °C for the first, 150.1 to 151.2 °C for the second.

Compared with `CN(CC1(O)CCN(CCOc2ccc(C#N)cc2)CC1)c1ccc(C(=O)O)cc1.Cl`, `COC(=O)c1ccc(N(C)CC2(O)CCN(CCOc3ccc(C#N)cc3)CC2)cc1` [Example 22, methyl 4-({1-[2-(4-cyanophenoxy)ethyl]-4-hydroxypiperidin-4-ylmethyl}methylamino)benzoate] is lower in melting point: 258.4 to 260.1 °C for the first, 112.5 to 113 °C for the second.

First: COC1(CN(C)c2ccc(C(=O)O)cc2)CCN(CCc2ccc(C#N)cc2)CC1.Cl
Second: COC(=O)c1ccc(N(C)CC2(OC)CCN(CCc3ccc(C#N)cc3)CC2)cc1 [Example 25, methyl 4-({1-[2-(4-cyanophenyl)ethyl]-4-methoxypiperidin-4-ylmethyl}methylamino)benzoate]
The melting point of the first is higher: 226.3 to 230.7 °C for the first, 126.9 to 134.5 °C for the second.

First: CN(CC1(O)CCCN(CCc2ccc(C#N)cc2)C1)c1ccc(C(=O)OC(C)(C)C)cc1 (stereo not drawn) [Example 9, tert-butyl 4-({1-[2-(4-cyanophenyl)ethyl]-3-hydroxypiperidin-3-ylmethyl}methylamino)benzoate]
Second: CN(CC1(O)CCN(CCc2ccc(C#N)cc2)C1)c1ccc(C(=O)O)cc1 (stereo not drawn) [Example 14, 4-({1-[2-(4-cyanophenyl)ethyl]-3-hydroxypyrrolidin-3-ylmethyl}methylamino)benzoic acid]
The melting point of the first is lower: 41.2 to 44.1 °C for the first, 106.1 to 130.8 °C for the second.

First: COC(=O)c1ccc(N(C)CC2(O)CN(CCc3ccc(C#N)cc3)C2)cc1 [Example 10, methyl 4-({1-[2-(4-cyanophenyl)ethyl]-3-hydroxyazetidin-3-ylmethyl}methylamino)benzoate]
Second: CN(CC1(O)CN(CCc2ccc(C#N)cc2)C1)c1ccc(C(=O)O)cc1 [Example 17, 4-({1-[2-(4-cyanophenyl)ethyl]-3-hydroxyazetidin-3-ylmethyl}methylamino)benzoic acid]
The melting point of the first is lower: 145.5 to 149.1 °C for the first, 197.9 to 199.4 °C for the second.

`COC(=O)c1ccc(OCC2(O)CCN(CCc3ccc(C#N)cc3)CC2)cc1` [Example 13, methyl 4-{1-[2-(4-cyanophenyl)ethyl]-4-hydroxypiperidin-4-ylmethoxy}benzoate] and `COC(=O)c1ccc(SCC2(O)CCN(CCc3ccc(C#N)cc3)CC2)cc1` [Example 42, methyl 4-{1-[2-(4-cyanophenyl)ethyl]-4-hydroxypiperidin-4-ylmethylthio}benzoate] cannot be ordered by melting point: 118.6 to 120.6 °C for the first, 119.1 to 120.8 °C for the second.

`COC(=O)c1ccc(N(C)CC2(O)CCN(Cc3ccc(C#N)cc3)CC2)cc1` [Example 20, methyl 4-{[1-(4-cyanobenzyl)-4-hydroxypiperidin-4-ylmethyl]methylamino}benzoate] and `COC(=O)c1ccc(N(C)CC2(O)CCN(CCCc3ccc(C#N)cc3)CC2)cc1` [Example 21, methyl 4-({1-[3-(4-cyanophenyl)propyl]-4-hydroxypiperidin-4-ylmethyl}methylamino)benzoate] cannot be ordered by melting point: 127.5 to 137.1 °C for the first, 126.8 to 129.7 °C for the second.

First: CN(CC1(O)CCN(CCc2ccc(C#N)cc2)CC1)c1ccc(C(=O)NOC2CCCCO2)cc1 (stereo not drawn) [Example 23, 4-({1-[2-(4-cyanophenyl)ethyl]-4-hydroxypiperidin-4-ylmethyl}methylamino)-N-(tetrahydropyran-2-yloxy)benzamide]
Second: CN(CC1(O)CCN(CCc2ccc(C#N)cc2)C1)c1ccc(C(=O)O)cc1.Cl (stereo not drawn) [Example 29, 4-({1-[2-(4-Cyanophenyl)ethyl]-3-hydroxypyrrolidin-3-ylmethyl}methylamino)benzoic acid monohydrochloride]
The melting point of the first is lower: 100.9 to 102.1 °C for the first, 122.8 to 132.5 °C for the second.

Compared with `COC(=O)c1ccc(N(C)CC2(O)CCN(CCc3ccc(C(F)(F)F)cc3)CC2)cc1` [Example 24, methyl 4-({4-hydroxy-1-[2-(4-trifluoromethylphenyl)ethyl]piperidin-4-ylmethyl}methylamino)benzoate], `COC(=O)c1ccc([S+]([O-])CC2(O)CCN(CCc3ccc(C#N)cc3)CC2)cc1` (stereo not drawn) [Example 44, methyl 4-{1-[2-(4-cyanophenyl)ethyl]-4-hydroxypiperidin-4-ylmethylsulfinyl}benzoate] is higher in melting point: 142.7 to 143.9 °C for the first, 169.6 to 174.5 °C for the second.

Compared with `CN(CC1(O)CN(CCc2ccc(C#N)cc2)C1)c1ccc(C(=O)O)cc1.Cl` [Example 34, 4-({1-[2-(4-Cyanophenyl)ethyl]-3-hydroxyazetidin-3-ylmethyl}methylamino)benzoic acid monohydrochloride], `COC(=O)c1ccc(S(=O)(=O)CC2(O)CCN(CCc3ccc(C#N)cc3)CC2)cc1` [Example 46, methyl 4-{1-[2-(4-cyanophenyl)ethyl]-4-hydroxypiperidin-4-ylmethylsulfonyl}benzoate] is lower in melting point: 209.1 to 210.5 °C for the first, 135.4 to 137.2 °C for the second.

In the case of `Cl.N#Cc1ccc(CCN2CCC(O)(C[S+]([O-])c3ccc(C(=O)O)cc3)CC2)cc1` (stereo not drawn), the melting point was 279.7 °C (dec.).
In the case of `COc1cc(C(=O)O)ccc1N(C)CC1(O)CCN(CCc2ccc(C#N)cc2)CC1` [Example 4, 4-({1-[2-(4-cyanophenyl)ethyl]-4-hydroxypiperidin-4-ylmethyl}methylamino)-3-methoxybenzoic acid], the melting point was 252.6 °C (dec.).

System: Citric Acid-Induced Cough Reflex in Guinea Pigs
Assay: Inhibitory effect on citric acid-induced cough reflex in guinea pigs (Experimental Example 1-1, plethysmograph)
Assay type: in vivo
Conditions: oral, 10 mg/kg, cough measured 1 hr after treatment
Procedure: Guinea pigs were fasted overnight. They were fixed to a plethysmograph, and then the change of inner pressure in the plethysmograph (body side) was recorded on an ink-recording paper (Nihon Kohden Corporation; WI-642G) via the differential pressure transducer (Nihon Kohden Corporation; TP-602T) and the respiration amplifier (Nihon Kohden Corporation; AR-601G). Using a nebulizer (OMRON Corporation; NE-U12), 20 W/V % citric acid solution was sprayed into the plethysmograph (head side) for 2 min (about 1 mL/min). The number of cough response for 15 min after the spray was measured.
(§1) The cough response was measured 3 hrs before and 1 hr after oral treatment. The test compound was not administered to the guinea pigs showing 5 coughs response or less before the treatment. The ratio of cough response between before and after the treatment (Post/Pre×100) was calculated, and the percent inhibition of the test compound on cough reflex induced by citric acid was determined according to the following formula: [(CRRcontrol−CRRtest)/(CRRcontrol)]×100 (%) • CRRcontrol: Ratio (%) of cough response in the control group • CRRtest: Ratio (%) of cough response in the compound-treated group

With `COc1ccc2c3c1O[C@H]1[C@@H](O)C=C[C@H]4[C@@H](C2)N(C)CC[C@@]341` [Codeine phosphate] the “Percent inhibition on cough reflex” value was 40%.

Same assay, conditions: oral, 20 mg/kg, cough measured 1 hr after treatment

In the case of `Cn1c(=O)c2[nH]cnc2n(C)c1=O` [Theophylline], the “Percent inhibition on cough reflex” value was 37%.

Same assay, conditions: oral, 30 mg/kg, cough measured 1 hr after treatment

In the case of `COc1ccc2c3c1O[C@H]1[C@@H](O)C=C[C@H]4[C@@H](C2)N(C)CC[C@@]341` [Codeine phosphate], the “Percent inhibition on cough reflex” value was 44%.

Same assay, conditions: oral, 60 mg/kg, cough measured 1 hr after treatment

With `COc1ccc2c3c1O[C@H]1[C@@H](O)C=C[C@H]4[C@@H](C2)N(C)CC[C@@]341` [Codeine phosphate] the “Percent inhibition on cough reflex” value was 66%.

System: Citric Acid-Induced Cough Reflex in Guinea Pigs
Assay: Inhibitory action on citric acid-induced cough reflex in guinea pigs (Experimental Example 1-2, nasal inhalation-exposure apparatus)
Assay type: in vivo
Conditions: oral, 30 mg/kg, cough measured 1 hr after treatment
Procedure: Guinea pigs were fasted overnight. They were fixed to an nasal inhalation-exposure apparatus for small animals (M.I.P.S. Co., Ltd.), and then 20 W/V % citric acid solution was sprayed into the plethysmograph for 2 min (about 1 mL/min) using a nebulizer (M.I.P.S. Co., Ltd.). The number of cough response for 15 min after the spray was measured.
as §1, with “5 cough responses” for “5 coughs response”, “compound-treated group.” for “compound-treated group”

`CN(CC1(O)CCN(CCc2ccc(C#N)cc2)C1)c1ccc(C(=O)O)cc1.Cl` (stereo not drawn) [Example 29, 4-({1-[2-(4-Cyanophenyl)ethyl]-3-hydroxypyrrolidin-3-ylmethyl}methylamino)benzoic acid monohydrochloride] and `CN(CC1(O)CN(CCc2ccc(C#N)cc2)C1)c1ccc(C(=O)O)cc1.Cl` [Example 34, 4-({1-[2-(4-Cyanophenyl)ethyl]-3-hydroxyazetidin-3-ylmethyl}methylamino)benzoic acid monohydrochloride] are the same in “Percent inhibition on cough reflex” value: 39% for the first, 39% for the second.
